Assay [1] concerns Ki67 and CD20 in Ramos tumor tissues. Description: Immunohistochemistry of Ki67 and CD20 in tumor tissues from the Ramos model. Type of assay: in vivo, NOD/SCID mice. The following applies: mouse tumor tissues. An excerpt: The ability of inducing apoptosis of SKLB-850 in tumor tissues was examined by TUNEL. […] We then examined apoptotic tumor cells in B-cell lymphoma samples from BCL patients after SKLB-850 treatment by FCM. As shown in Figure 6C and 6F, SKLB-850 induced cell apoptosis (14.10 ± 4.04%), and R788 had the same effect but relatively weak (7.60 ± 0.52%). To better understand the mechanism of antitumor activities in vivo, Ki67 and CD20 in mouse tumor tissues were detected by immunohischemistry; Ki67 was a marker of proliferation in the diagnosis of tumors and CD20 was highly expressed in B cell lymphomas.
Paraffin sections from each group were stained with hematoxylineosin (H&E). For immunohistochemistry studies, tumor tissues in the Ramos model were performed and the following antibodies were used: phospho-Src (Cell Signaling Technology, 1:100), phospho-FAK (Cell Signaling Technology, 1:100), phospho-Stat3 (Cell Signaling Technology, 1:100), NF-κB p-65(Cell Signaling Technology, 1:100) and phospho-Syk (Cell Signaling Technology, 1:100). Additionally, Rat anti-mouse CD31 antibody (BD Biosciences, USA) and anti-Ki67 antibody (Gene Tech) were used to determine vessel density and cell proliferation following the manufacturer’s protocol, respectively. A DAKO polymer secondary antibody system (Dako Envision 1K4007) was used for secondary detection. […]

The test system of another assay is A549. The assay can be described thus: MTT anti-viability assay. Format: cell-based. The following applies: A549, Human non-small cell lung cancer cells, 72 hours. The method, then: (§1) In vitro anti-viability activities of SKLB-850 against various tumor cell lines were measured using the MTT method.
(§2) Human cancer cell lines Ramos-ZHL, HBL-1, SuDHL-6, LY-10, LY-1, RAJI, MDA-MB-231, SW1990, SMMC7721, MCF-7, CFPAC-1, HPAC, A549 and H358 were obtained from American Type Culture Collection (ATCC). All tumor cell lines were maintained according to the ATCC procedures and passaged for less than 6 months after receipt for resuscitation. These cells were cultured in RPMI-1640 supplemented with 10% fetal bovine serum (FBS).
(§3) Cell proliferation was measured using the MTT assay as previously described. Various cells including were treated with indicated concentrations of SKLB-850 for 72 hours. R788 (Selleck.cn) was served as a positive control. Each assay was replicated 3 times.

A further assay relates to MDA-MB-231. The assay can be described thus: MTT anti-viability assay. Type of assay: cell-based. The following applies: MDA-MB-231, Human breast cancer cell, 72 hours. The method, then:
as §1, §2, §3
Background: Tetrazolium assays rely on reduction of a dye to a coloured formazan, in cell work by metabolically active cells.

Another assay relates to HPAC. The assay can be described thus: MTT anti-viability assay. The following applies: Human pancreatic cancer cell, 72 hours. Type of assay: cell-based. The method, then: as §1, §2, §3
The next assay has as its system SuDHL-6. The assay can be described thus: MTT anti-viability assay. Format: cell-based. The following applies: SU-DHL-6, SuDHL-6, Human follicular B cell lymphoma, 72 hours. The method, then: as §1, §2, §3
A further assay deals with MCF-7. Description: MTT anti-viability assay. Type of assay: cell-based. The following applies: MCF7, MCF-7, Human breast cancer cell, 72 hours. The method, then: as §1, §2, §3
The test system of another assay is RAJI. Description: MTT anti-viability assay. Type of assay: cell-based. The following applies: Human B cell lymphoma, 72 hours. The method, then:
as §1, §2, §3

A further assay deals with LY-10. The assay can be described thus: MTT anti-viability assay. Format: cell-based. The following applies: LY10, LY-10, Human diffuse large B cell lymphoma, 72 hours. The method, then:
as §1, §2, §3

Another assay deals with H358. Description: MTT anti-viability assay. Type of assay: cell-based. Particulars: 72 hours. The method, then: as §1, §2, §3
Another assay relates to SW1990. Description: MTT anti-viability assay. Format: cell-based. The following applies: SW1990, Human pancreatic cancer cell, 72 hours. The method, then: as §1, §2, §3
The next assay deals with CFPAC-1. The assay can be described thus: MTT anti-viability assay. Type of assay: cell-based. Particulars: CFPAC-1, Human pancreatic cancer cell, 72 hours. The method, then: as §1, §2, §3
In a further assay the test system is HBL-1. The assay can be described thus: MTT anti-viability assay. Format: cell-based. The following applies: HBL1, HBL-1, Human diffuse large B cell lymphoma, 72 hours. The method, then:
as §1, §2, §3

For the next assay, the system named is Ramos-ZHL. Description: MTT anti-viability assay. Format: cell-based. The following applies: Human B cell lymphoma, 72 hours. The method, then:
as §1, §2, §3

The subject of a further assay is SMMC7721. The assay can be described thus: MTT anti-viability assay. Type of assay: cell-based. The following applies: SMMC-7721, SMMC7721, Human hepatocellular carcinoma cell, 72 hours. The method, then:
as §1, §2, §3

In a further assay the test system is LY-1. Description: MTT anti-viability assay. Format: cell-based. Particulars: Ly1, LY-1, Human diffuse large B cell lymphoma, 72 hours. The method, then: as §1, §2, §3
For assay [2], the system named is CD184 expression of Ramos cells. Description: CD184 (CXCR4) surface expression by flow cytometry. Format: cell-based, Human. The method, then:
(§4) And BCL cells could migrate toward the chemokine CXCL12 upon activation of its receptor CD184 [27].
The expression of surface molecules was analyzed by flow cytometry, using the following monoclonal antibody CD184 (CXCR4), and the relevant isotype controls mAbs (BD biosciences). A total of 10^6 mononuclear cells were incubated for 30 minutes at 4°C with saturating concentrations of mAbs, and the cells were washed twice and analyzed with a flow cytometer (BD FACSCalibur, BD, USA).
Background: In flow cytometry, cells or beads pass a laser one at a time.

Assay [3] has as its system Syk, Src/FAK, JAK2/STAT3 and NF-κB p65 phosphorylation in Ramos tumor tissues. Description: Immunohistochemistry of phospho-proteins in tumor tissues from the Ramos tumor model. Type of assay: in vivo, NOD/SCID mice. The method, then:
To understand the mechanism of antitumor activities in vivo, pivotal protein activities of Syk/ERK, Src/FAK and JAK2/STAT3 signaling pathways were detected by Western blot analysis. […] Immunohistochemistry assays were performed using tumor tissues isolated from the Ramos tumor model at the end of treatment.
Paraffin sections from each group were stained with hematoxylineosin (H&E). For immunohistochemistry studies, tumor tissues in the Ramos model were performed and the following antibodies were used: phospho-Src (Cell Signaling Technology, 1:100), phospho-FAK (Cell Signaling Technology, 1:100), phospho-Stat3 (Cell Signaling Technology, 1:100), NF-κB p-65(Cell Signaling Technology, 1:100) and phospho-Syk (Cell Signaling Technology, 1:100). Additionally, Rat anti-mouse CD31 antibody (BD Biosciences, USA) and anti-Ki67 antibody (Gene Tech) were used to determine vessel density and cell proliferation following the manufacturer’s protocol, respectively. A DAKO polymer secondary antibody system (Dako Envision 1K4007) was used for secondary detection. Images were captured using an Olympus digital camera.

The subject of a further assay is Ramos cells. The assay can be described thus: Chemotaxis assay toward CXCL12 (transwell). Format: cell-based, Human. The following applies: CXCL12 200ng/mL, 12 hours. The method, then: as §4
Chemotaxis assay was performed as previously described. Briefly, 1×10^6 Ramos cells were cultured in RPMI 1640 containing 0.5% bovine serum albumin and were pre-incubated for 30 minutes with SKLB-850, R788 or DMSO, and then they were added to the inserts of transwell chambers (5μm poresize; Corning). Inserts were then transferred into wells containing CXCL12 (200ng/mL). After 12 hours, cell count was determined for the upper and lower well in duplicates using a flow cytometer (Novocyte Technologies, China). Chemotaxis indices were calculated as: [number of cells in the lower chamber×100] / [number of cells in the lower and upper chambers]. The chemotaxis index with SKLB-850 was calculated as percentage of the DMSO index.

Some results are limits rather than exact numbers.

The record followed here is article PMC5762338, “A novel orally available Syk/Src/Jak2 inhibitor, SKLB-850, showed potent anti-tumor activities in B cell lymphoma (BCL) models” (Oncotarget, 2017).

As usually defined, the IC50 is the concentration that inhibits the measured activity by half. A lower IC50 goes with greater potency.

On to `CN1CCN(c2ccc(Nc3ncc(F)c(Nc4ccc(Cl)cc4C(N)=O)n3)cc2)CC1` [SKLB-850, 5-chloro-2-((5-fluoro-2-((4-(4-methylpiperazin-1-yl)phenyl)amino)pyrimidin-4-yl)amino) benzamide], for which the “CD20 expression (in words)” value in assay [1] is given as “significant reduction”. Moreover, in [1], the “Ki67 expression (in words)” value is recorded as “significant reduction”. The concentration for half-maximal inhibition (IC50) is > 20000 nM in the assay on A549; 2190 nM with MDA-MB-231; > 20000 nM in the assay with HPAC; 900 nM in the assay on SuDHL-6; 7230 nM in the assay with MCF-7; 1950 nM in the assay on RAJI. In addition, the IC50 is 900 nM in the assay on LY-10; > 20000 nM with H358 (NCI-H358, H358, Human non-small cell lung cancer cells); 2190 nM in the assay on SW1990; 7240 nM in the assay with CFPAC-1; 690 nM with HBL-1; 30 nM in the assay on Ramos-ZHL. Moreover, the half-maximal inhibitory concentration (IC50) in the assay on SMMC7721 worked out at 2200 nM; in the assay with LY-1, 1600 nM. The IC50 anti-viability result in the assay with A549 is “did not exhibit activity”; in the assay on HPAC it was “did not exhibit activity”; in the assay on H358 (H358, Human non-small cell lung cancer cells), “did not exhibit activity”. Further, the “expression of CD184 (in words)” value in assay [2] is reported as “decreased the expression of CD184”. Further, the “phosphorylation of NF-κB p65 (in words)” value in [3] (tumor tissues from the Ramos tumor model) is given as “inhibited”. Besides, in assay [3] (tumor tissues from the Ramos tumor model at the end of treatment), the “phosphorylations of Syk, Src/FAK and JAK2/STAT3 (in words)” value was “inhibited”. Further, the “Ramos cell chemotaxis toward CXCL12 (in words)” value with Ramos cells is listed as “reduced the percentage of Ramos cell chemotaxis toward CXCL12”.
